Experimental data published in patent US10294207B2, “Pyrazole derivatives as TNIK, IKKϵ and TBK1 inhibitor and pharmaceutical composition comprising same” (GREEN CROSS CORPORATION, priority 2015, dated 2019).
Counter-ions that a name gives are not always drawn.

Biological target: T1, TBK1 (Homo sapiens, UniProt Q9UHD2)
T1 construct: purchased Promega V3991
T1 sequence (Q9UHD2 1-729): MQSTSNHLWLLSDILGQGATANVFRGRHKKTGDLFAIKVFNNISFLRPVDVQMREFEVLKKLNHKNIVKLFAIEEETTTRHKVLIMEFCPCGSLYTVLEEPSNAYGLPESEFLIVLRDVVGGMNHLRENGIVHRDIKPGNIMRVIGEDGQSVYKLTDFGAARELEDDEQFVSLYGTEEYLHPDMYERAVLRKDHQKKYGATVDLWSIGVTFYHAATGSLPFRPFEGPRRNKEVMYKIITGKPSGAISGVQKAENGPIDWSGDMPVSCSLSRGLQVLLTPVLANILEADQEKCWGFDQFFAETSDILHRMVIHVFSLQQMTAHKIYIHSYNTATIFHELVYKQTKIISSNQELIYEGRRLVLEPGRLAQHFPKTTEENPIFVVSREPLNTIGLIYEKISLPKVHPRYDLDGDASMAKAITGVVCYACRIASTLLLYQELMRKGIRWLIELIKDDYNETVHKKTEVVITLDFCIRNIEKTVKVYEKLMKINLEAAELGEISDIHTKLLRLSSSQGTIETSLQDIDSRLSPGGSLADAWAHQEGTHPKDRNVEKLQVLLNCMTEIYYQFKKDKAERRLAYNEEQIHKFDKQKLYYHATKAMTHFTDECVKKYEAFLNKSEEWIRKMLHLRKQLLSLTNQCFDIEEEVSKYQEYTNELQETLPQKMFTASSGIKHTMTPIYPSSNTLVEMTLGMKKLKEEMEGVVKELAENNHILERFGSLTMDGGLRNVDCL
Experiment: TBK1 inhibition, ADP-Glo Kinase Assay
Type: biochemical
Conditions: luminometer
Description: Inhibition activities on TNIK, IKKε and TBK1 were evaluated using the compounds of Examples 1 to 254.
The inhibition activities on TNIK, IKKε and TBK1 were measured by a luminometer, TNIK/IKKε/TBK1 Kinase Enzyme System (Promega, Ca# V4158; Invitrogen, PR8031B, Promega, Ca# V3991) and ADP-Glo Kinase Assay using ADP-Glo™ Kinase Analysis Kit (Promega, Ca# V9101) and a kinase reaction buffer [40 mM Tris(pH 7.5), 20 mM MgCl2, 0.1 mg/mL BSA] in accordance with the manufacturer's protocol.

| SMILES | IC50 [µM] |
| --- | --- |
| COc1ccc(C(=O)Nc2n[nH]c3ccc(C(=O)N4CCc5ccsc5C4)cc23)cc1 [Example 5, 4-Methoxy-N-(5-(4,5,6,7-tetrahydrothieno[2,3-c]pyridine-6-carbonyl)-1H-indazol-3-yl)benzamide] | 8.4 |
| COc1ccc(C(=O)Nc2n[nH]c3ccc(NCc4cccs4)cc23)cc1 [Example 11, 4-Methoxy-N-(5-((thiophen-2-ylmethyl)amino)-1H-indazol-3-yl)benzamide] | 0.89 |
| COc1ccc(C(=O)Nc2n[nH]c3ccc(-c4ccc(CN5CCOCC5)s4)cc23)cc1 [Example 12, 4-Methoxy-N-(5-(5-(morpholinomethyl)thiophen-2-yl)-1H-indazol-3-yl)benzamide] | 0.43 |
| O=C(NCc1cccs1)c1ccc2[nH]nc(NC(=O)c3ccccc3)c2c1 [Example 13, 3-Benzamido-N-(thiophen-2-ylmethyl)-1H-indazole-5-carboxamide] | 0.036 |
| CC(NC(=O)c1ccc2[nH]nc(NC(=O)c3ccc(F)cc3)c2c1)c1cccs1 (stereo not shown) [Example 14, 3-(4-Fluorobenzamido)-N-(1-(thiophen-2-yl)ethyl)-1H-indazole-5-carboxamide] | 0.042 |
| CCC(NC(=O)c1ccc2[nH]nc(NC(=O)c3ccc(F)cc3)c2c1)c1cccs1 (stereo not shown) [Example 17, 3-(4-Fluorobenzamido)-N-(1-(thiophen-2-yl)propyl)-1H-indazole-5-carboxamide] | 0.013 |
| O=C(NCc1ccncc1)c1ccc2[nH]nc(NC(=O)c3ccc(F)cc3)c2c1 [Example 29, 3-(4-Fluorobenzamido)-N-(pyridin-4-ylmethyl)-1H-indazole-5-carboxamide] | 0.28 |
| O=C(Nc1n[nH]c2ccc(C(=O)NC(c3cccs3)C3CC3)cc12)c1ccc(F)cc1 (stereo not shown) [Example 30, N-(Cyclopropyl(thiophen-2-yl)methyl)-3-(4-fluorobenzamido)-1H-indazole-5-carboxamide] | 0.036 |
| O=C(Nc1n[nH]c2ccc(CNCc3cccs3)cc12)c1ccc(F)cc1 [Example 31, 4-Fluoro-N-(5-(((thiophen-2-ylmethyl)amino)methyl)-1H-indazol-3-yl)benzamide Hydrochloride] | > 10 |
| O=C(NCc1cccs1)c1ccc2[nH]nc(NS(=O)(=O)c3ccccc3)c2c1 [Example 39, 3-(Phenylsulfonamido)-N-(thiophen-2-ylmethyl)-1H-indazole-5-carboxamide] | > 10 |
| CCCCCCNc1ccc(C(=O)Nc2n[nH]c3ccc(C(=O)NCc4cccs4)cc23)cc1 [Example 161, 3-(4-(Hexylamino)benzamido)-N-(thiophen-2-ylmethyl)-1H-indazole-5-carboxamide] | 0.76 |
| O=C(NCc1cccs1)c1ccc2[nH]nc(NC(=O)c3ccc(NC4CCCCC4)cc3)c2c1 [Example 162, 3-(4-(Cyclohexylamino)benzamido)-N-(thiophen-2-ylmethyl)-1H-indazole-5-carboxamide] | 0.08 |
| O=C(NCc1cccs1)c1ccc2[nH]nc(NC(=O)c3ccc(NC4CCCCCC4)cc3)c2c1 [Example 164, 3-(4-(Cycloheptylamino)benzamido)-N-(thiophen-2-ylmethyl)-1H-indazole-5-carboxamide] | 5.6 |
| O=C(NCc1cccs1)c1ccc2[nH]nc(NC(=O)c3ccc(NC4CCCCCCC4)cc3)c2c1 [Example 165, 3-(4-(Cyclooctylamino)benzamido)-N-(thiophen-2-ylmethyl)-1H-indazole-5-carboxamide] | 0.43 |
| O=C(NCc1cccs1)c1ccc2[nH]nc(NC(=O)c3ccc(NCC4CCCCC4)cc3)c2c1 [Example 166, 3-(4-((Cyclohexylmethyl)amino)benzamido)-N-(thiophen-2-ylmethyl)-1H-indazole-5-carboxamide] | 0.26 |
| O=C(NCc1cccs1)c1ccc2[nH]nc(NC(=O)c3ccc(NCCn4cccc4)cc3)c2c1 [Example 169, 3-(4-((2-(1H-Pyrrol-1-yl)ethyl)amino)benzamido)-N-(thiophen-2-ylmethyl)-1H-indazole-5-carboxamide] | 0.03 |
| CN1CCN(c2ccc(C(=O)Nc3n[nH]c4ccc(C(=O)NCc5cccs5)cc34)c(F)c2)CC1 [Example 170, 3-(2-Fluoro-4-(4-methylpiperazin-1-yl)benzamido)-N-(thiophen-2-ylmethyl)-1H-indazole-5-carboxamide] | > 10 |
| O=C(NCc1cccs1)c1ccc2[nH]nc(NC(=O)c3cccc([N+](=O)[O-])c3)c2c1 [Example 204, 3-(3-Nitrobenzamido)-N-(thiophen-2-ylmethyl)-1H-indazole-5-carboxamide] | 0.077 |
| O=C(NCc1cccs1)c1ccc2[nH]nc(NC(=O)c3ccc(NC(=O)C4CCC4)cc3)c2c1 [Example 206, 3-(4-(Cyclobutanecarboxamido)benzamido)-N-(thiophen-2-ylmethyl)-1H-indazole-5-carboxamide] | 0.026 |
| O=C(NCc1cccs1)c1ccc2[nH]nc(NC(=O)c3ccc(NC(=O)C4(C(F)(F)F)CC4)cc3)c2c1 [Example 207, N-(Thiophen-2-ylmethyl)-3-(4-(1-(trifluoromethyl)cyclopropanecarboxamido)benzamido)-1H-indazole-5-carboxamide] | 0.038 |
| O=C1CC(C(=O)Nc2ccc(C(=O)Nc3n[nH]c4ccc(C(=O)NCc5cccs5)cc34)cc2)C1 [Example 208, 3-(4-(3-Oxocyclobutanecarboxamido)benzamido)-N-(thiophen-2-ylmethyl)-1H-indazole-5-carboxamide] | 0.027 |
| CC(C)(C)OC(=O)N1CCC[C@H]1C(=O)Nc1ccc(C(=O)Nc2n[nH]c3ccc(C(=O)NCc4cccs4)cc23)cc1 [Example 210, tert-Butyl (S)-2-((4-((5-((thiophen-2-ylmethyl)carbamoyl)-1H-indazol-3-yl)carbamoyl)phenyl)carbamoyl)pyrrolidine-1-carboxylate] | 0.12 |

Second part, the compound after the results:

| IC50 [µM] | SMILES |
| --- | --- |
| 0.83 | COc1ccc(C(=O)Nc2n[nH]c3ccc(C(=O)N(C)Cc4cccs4)cc23)cc1 [Example 4, 3-(4-Methoxybenzamido)-N-methyl-N-(thiophen-2-ylmethyl)-1H-indazole-5-carboxamide] |
| 0.025 | CSc1ccc(C(=O)Nc2n[nH]c3ccc(C(=O)NCc4cccs4)cc23)cc1 [Example 6, 3-(4-(Methylthio)benzamido)-N-(thiophen-2-ylmethyl)-1H-indazole-5-carboxamide] |
| 0.03 | CC(C)(C)c1ccc(C(=O)Nc2n[nH]c3ccc(C(=O)NCc4cccs4)cc23)cc1 [Example 10, 3-(4-tert-Butylbenzamido)-N-(thiophen-2-ylmethyl)-1H-indazole-5-carboxamide] |
| 0.089 | O=C(NCc1cccs1)c1ccc2[nH]nc(NC(=O)c3ccc(F)cc3)c2c1 [Example 36, 3-(4-Fluorobenzamido)-N-(thiophen-2-ylmethyl)-1H-indazole-5-carboxamide] |
| 0.2 | CN(Cc1cccs1)C(=O)c1ccc2[nH]nc(NC(=O)c3ccc(N4CCOCC4)cc3)c2c1 [Example 42, N-Methyl-3-(4-morpholinobenzamido)-N-(thiophen-2-ylmethyl)-1H-indazole-5-carboxamide] |
| 0.019 | O=C(NCc1ccncc1)c1ccc2[nH]nc(NC(=O)c3ccc(N4CCOCC4)cc3)c2c1 [Example 120, 3-(4-Morpholinobenzamido)-N-(pyridin-4-ylmethyl)-1H-indazole-5-carboxamide] |
| 0.0054 | O=C(NCc1cccs1)c1ccc2[nH]nc(NC(=O)c3ccc(NCCC4CCOCC4)cc3)c2c1 [Example 160, 3-(4-((2-(Tetrahydro-2H-pyran-4-yl)ethyl)amino)benzamido)-N-(thiophen-2-ylmethyl)-1H-indazole-5-carboxamide] |
| 0.036 | O=C(NCc1cccs1)c1ccc2[nH]nc(NC(=O)c3ccc(NC4CCCC4)cc3)c2c1 [Example 163, 3-(4-(Cyclopentylamino)benzamido)-N-(thiophen-2-ylmethyl)-1H-indazole-5-carboxamide] |
| 6.6 | O=C(NCc1cccs1)c1ccc2[nH]nc(NC(=O)c3ccc(N4CCOCC4)cc3N3CCOCC3)c2c1 [Example 168, 3-(2,4-Dimorpholinobenzamido)-N-(thiophen-2-ylmethyl)-1H-indazole-5-carboxamide] |
| 0.093 | O=C(NCc1cccs1)c1ccc2[nH]nc(NC(=O)c3ccc(O)cc3)c2c1 [Example 200, 3-(4-Hydroxybenzamido)-N-(thiophen-2-ylmethyl)-1H-indazole-5-carboxamide] |
| 0.075 | O=C(NCc1cccs1)c1ccc2[nH]nc(NC(=O)c3ccc([N+](=O)[O-])cc3)c2c1 [Example 203, 3-(4-Nitrobenzamido)-N-(thiophen-2-ylmethyl)-1H-indazole-5-carboxamide] |
| 0.003 | Nc1ccc(C(=O)Nc2n[nH]c3ccc(C(=O)NCc4cccs4)cc23)cc1 [Example 205, 3-(4-Aminobenzamido)-N-(thiophen-2-ylmethyl)-1H-indazole-5-carboxamide] |
